Results on three compounds are retold here after US20080161607A1 (Teva Pharmaceuticals USA, Inc., priority 2002, published 2008).

Molecules are shown by their SMILES.

Series [1] in a line: Storage stability of bulk sertraline hydrochloride Form II; polymorph content by XRPD. The settings on record: for Polymorph Content of bulk sertraline hydrochloride, content of Form I (in parentheses) / Polymorph Content of bulk sertraline hydrochloride, Polymorphic Form detected (I or II): 40° C., 75% RH; for Polymorph Content of bulk sertraline hydrochloride, content of Form I (in parentheses): Form I relative to all sertraline hydrochloride. The text has this:
X-Ray powder diffraction data was obtained by using a SCINTAG powder X-Ray diffractometer model X′TRA equipped with a solid state detector. Copper radiation of 1.5418 Å was used. The diffractometer was equipped with a round aluminum sample holder with round zero background quartz plate having a cavity of 25(diameter)*0.5(depth) mm.

For series [2] the following is noted: granulation in isopropyl alcohol, ethyl acetate, hexane at 40 E to 60 E C; disclosed in U.S. Pat. No. 5,248,699; cited from earlier work.

`CN[C@H]1CC[C@@H](c2ccc(Cl)c(Cl)c2)c2ccccc21.Cl` [Example 1, (1S-cis)-4-(3,4 dichlorophenyl)-1,2,3,4-tetrahydro-N-methyl-1-naphthalenamine hydrochloride]: the “Polymorph Content of bulk sertraline hydrochloride, content of Form I (in parentheses)” value in series [1] (1 month) is given as < 1%; in series [1] (2 months), 2%; in series [1] (3 months), 2%; in series [1] (4 months) it was 4%; in series [1] (t = 0), < 1%. Also, the “Polymorph Content of bulk sertraline hydrochloride, Polymorphic Form detected (I or II)” value in series [1] (1 month, hydrochloride) is “II > I”; in series [1] (2 months, hydrochloride), “II > I”; in series [1] (3 months), “II > I”; in series [1] (4 months) it was “II > I”; in series [1] (t = 0, hydrochloride) it was “II > I”.
For the compound `CN[C@H]1CC[C@@H](c2ccc(Cl)c(Cl)c2)c2ccccc21.Cl` [Form II, (1S-cis)-4-(3,4 dichlorophenyl)-1,2,3,4-tetrahydro-N-methyl-1-naphthalenamine hydrochloride], in series [2], the result of granulation is recorded as “conversion to Form I”.
On to `CN[C@H]1CC[C@@H](c2ccc(Cl)c(Cl)c2)c2ccccc21.Cl` [sertraline hydrochloride], for which the “stability during storage under stress conditions” value in series [1] (Form II containing at least about 1% w/w Form I) is “not stable”.
